Data reported in the supplement of paper PMC13380429.
Where a name gives a salt, the structure may show the parent alone.

Key:
Conditions in all cases: 72 h
Caco-2 [1] = assay: relative viability EC50 (midpoint between 100% and the lowest measured viability); higher = less toxic
U2OS [2] = assay: as above
Calu-3 [3] = assay: as above
Vero E6 [4] = assay: as above
Caco-2 [5] = assay: cell viability relative to DMSO; higher = less toxic
U2OS [6] = assay: as above
Calu-3 [7] = assay: as above
Vero E6 [8] = assay: as above
Caco-2 [9] = assay: drug sensitivity score (DSS) for viability; higher = more toxic; extreme values may be limits of the assay
U2OS [10] = assay: as above
Calu-3 [11] = assay: as above
Vero E6 [12] = assay: as above
HepG2 [13] = assay: cell viability relative to DMSO; higher = less toxic
HepG2 [14] = assay: drug sensitivity score (DSS) for viability; higher = more toxic; extreme values may be limits of the assay

| SMILES | relative viability EC50 (Caco-2 [1]) [µM] | relative viability EC50 (U2OS [2]) [µM] | relative viability EC50 (Calu-3 [3]) [µM] | relative viability EC50 (Vero E6 [4]) [µM] | cell viability (Caco-2 [5]; 1 nM) [%] | cell viability (Caco-2 [5]; 10 nM) [%] | cell viability (Caco-2 [5]; 100 nM) [%] | cell viability (Caco-2 [5]; 1000 nM) [%] | cell viability (Caco-2 [5]; 10000 nM) [%] | cell viability (U2OS [6]; 1 nM) [%] | cell viability (U2OS [6]; 10 nM) [%] | cell viability (U2OS [6]; 100 nM) [%] | cell viability (U2OS [6]; 1000 nM) [%] | cell viability (U2OS [6]; 10000 nM) [%] | cell viability (Calu-3 [7]; 1 nM) [%] | cell viability (Calu-3 [7]; 10 nM) [%] | cell viability (Calu-3 [7]; 100 nM) [%] | cell viability (Calu-3 [7]; 1000 nM) [%] | cell viability (Calu-3 [7]; 10000 nM) [%] | cell viability (Vero E6 [8]; 1 nM) [%] | cell viability (Vero E6 [8]; 10 nM) [%] | cell viability (Vero E6 [8]; 100 nM) [%] | cell viability (Vero E6 [8]; 1000 nM) [%] | cell viability (Vero E6 [8]; 10000 nM) [%] | drug sensitivity score (Caco-2 [9]) | drug sensitivity score (U2OS [10]) | drug sensitivity score (Calu-3 [11]) | drug sensitivity score (Vero E6 [12]) | cell viability (HepG2 [13]; 1 nM) [%] | cell viability (HepG2 [13]; 10 nM) [%] | cell viability (HepG2 [13]; 100 nM) [%] | cell viability (HepG2 [13]; 1000 nM) [%] | cell viability (HepG2 [13]; 10000 nM) [%] | drug sensitivity score (HepG2 [14]) |
| --- | --- | --- | --- | --- | --- | --- | --- | --- | --- | --- | --- | --- | --- | --- | --- | --- | --- | --- | --- | --- | --- | --- | --- | --- | --- | --- | --- | --- | --- | --- | --- | --- | --- | --- |
| N#Cc1c(O)c2c(-c3ccc(-c4ccccc4O)cc3)csc2[nH]c1=O | > 10 | > 10 | > 10 | > 10 | 97.8 | 102 | 95.2 | 98.8 | 96.5 | 103 | 108 | 99.8 | 106 | 99.1 | 94.3 | 94.8 | 96.7 | 95.5 | 104 | 105 | 101 | 97.3 | 95.4 | 99 | 0 | 0 | 0 | 0 |  |  |  |  |  |  |
| O=C1NC(=O)c2c1c1c3ccccc3n3c1c1c2c2ccccc2n1C1CCC3O1 | > 10 | > 10 | > 10 |  | 101 | 96.2 | 92.9 | 76.9 | 80.7 | 99.8 | 99.3 | 91.1 | 86.8 | 80 | 104 | 92.6 | 96.4 | 92 | 95.9 | 98.5 | 94.7 | 95 | 71.7 | 75 | 4 | 1.9 | 0 | 5.5 | 100 | 99.9 | 98.8 | 57.8 | 56.5 | 7.8 |
| c1ccc(-c2n[nH]c3c2oc2ccccc23)cc1 | > 10 | > 10 | > 10 | > 10 | 107 | 99.4 | 104 | 96.8 | 89.7 | 103 | 102 | 98.5 | 99.6 | 93.8 | 89.6 | 103 | 102 | 105 | 110 | 91 | 96.4 | 91.7 | 90.1 | 102 | 0 | 0 | 0 | 0 | 104 | 106 | 90.1 | 84 | 74.5 | 2.9 |
| OC[C@H]1O[C@@H](O[C@@H]2[C@@H](CO)OC(O)(CO)[C@H]2O)[C@H](O)[C@@H](O)[C@H]1O (mixture of isomers) [lactulose] | > 10 |  | > 10 | > 10 | 100 | 98.2 | 101 | 104 | 106 |  |  |  |  |  | 107 | 112 | 99.1 | 104 | 101 | 94.1 | 97.7 | 89.1 | 94.6 | 110 | 0 |  | 0 | 0 |  |  |  |  |  |  |
| OCCCCO [1,4-butanediol] | > 10 | > 10 | > 10 | > 10 | 98.6 | 112 | 119 | 107 | 102 | 101 | 108 | 96.8 | 111 | 97.8 | 89.2 | 98.4 | 89.4 | 94 | 93.7 | 102 | 102 | 100 | 104 | 93.1 | 0 | 0 | 0 | 0 | 90.8 | 97.9 | 95.7 | 105 | 74.4 | 0.7 |
| C[C@@H](N)[C@@H](O)c1ccccc1 [1S,2R-phenylpropanolamine] | > 10 |  | > 10 | > 10 | 98.5 | 107 | 97.4 | 102 | 110 |  |  |  |  |  | 106 | 106 | 98.8 | 102 | 99.7 | 101 | 101 | 101 | 103 | 97.7 | 0 |  | 0 | 0 |  |  |  |  |  |  |
| CCS(=O)(=O)N(Cc1cccnc1)c1cccc(-c2ccc(C#N)cc2)c1 [CBiPES] | > 10 | > 10 | > 10 | > 10 | 100 | 99.2 | 98.1 | 92.6 | 76.4 | 104 | 97.2 | 103 | 98.1 | 94.6 | 101 | 96.5 | 97.1 | 96.8 | 112 | 103 | 96.7 | 101 | 96.4 | 85.9 | 1.6 | 0 | 0 | 0.5 | 98.5 | 96.3 | 93.7 | 105 | 56.7 | 1.9 |
| CC(C)NC[C@@H](C(=O)N1CCN(c2ncnc3c2[C@H](C)C[C@H]3O)CC1)c1ccc(Cl)cc1 [GDC-0068] |  | > 10 |  | > 10 | 107 | 107 | 96 | 83.2 | 69.1 | 105 | 100 | 101 | 96.8 | 87.2 | 101 | 108 | 89.9 | 80.8 | 56.7 | 105 | 102 | 100 | 101 | 93.2 | 3 | 0.3 | 4.3 | 0 | 109 | 115 | 108 | 98.9 | 71.4 | 1.3 |
| CNC1CC(N)C(O)C(OC2OC(CO)C(O)C3OC4(OC(C(N)CO)C(O)C(O)C4O)OC23)C1O (stereo not drawn) [Hygromycin B] | > 10 | > 10 | > 10 | > 10 | 97.2 | 105 | 107 | 108 | 95.9 | 104 | 97.8 | 99 | 103 | 93.9 | 95.7 | 93.5 | 92.9 | 97.5 | 89.8 | 95.9 | 93.4 | 95.4 | 91.5 | 104 | 0 | 0 | 0 | 0 |  |  |  |  |  |  |
| CN1c2cc3c(cc2N=C(c2ccc(C(=O)O)cc2)c2ccccc21)C(C)(C)CCC3(C)C [LE-135] |  |  | > 10 | > 10 | 88.8 | 100 | 101 | 89.7 | 60.1 | 101 | 106 | 100 | 97.8 | 57.2 | 108 | 108 | 91.2 | 102 | 98.5 | 99 | 102 | 98.2 | 87.3 | 78.7 | 3.6 | 2.5 | 0 | 1.7 | 85.1 | 104 | 86.8 | 87.6 | 74 | 2.4 |
| CCCCCCOc1cc2c(cc1N(C)c1ncc(C(=O)O)cn1)C(C)(C)CCC2(C)C [PA-452] |  | > 10 |  |  |  |  |  |  |  | 97.7 | 92.8 | 97 | 101 | 103 |  |  |  |  |  |  |  |  |  |  |  | 0 |  |  |  |  |  |  |  |  |
| CN1[C@@H]2C[C@@H](OC(=O)[C@H](CO)c3ccccc3)C[C@H]1[C@@H]1O[C@@H]12 [SCOPOLAMINE HYDROBROMIDE] |  | > 10 | > 10 | > 10 |  |  |  |  |  | 98 | 98.7 | 99.3 | 95.9 | 96.4 | 96.6 | 99.1 | 91.6 | 101 | 105 | 94.2 | 99 | 94.4 | 97.2 | 115 |  | 0 | 0 | 0 |  |  |  |  |  |  |
| Cc1cc(Nc2cc(C)c(C#N)c(N[C@@H](C)CCCC(C)(C)O)n2)n[nH]1 [TC-A-2317] | 1.47 | 1.33 | 0.799 | 1.4 | 103 | 102 | 94 | 77.6 | 25.3 | 106 | 98.2 | 96.9 | 68.8 | 7.2 | 98 | 89.4 | 84.7 | 77.2 | 40.8 | 105 | 104 | 96.4 | 75.7 | 22 | 7.2 | 9.4 | 6.7 | 7.8 | 110 | 103 | 93.2 | 62.8 | 54.3 | 7.5 |
| C=CCNc1nc(NCC=C)nc(N2CCN(C(c3ccc(F)cc3)c3ccc(F)cc3)CC2)n1 [almitrine] | > 10 | > 10 | > 10 | > 10 | 91.3 | 79.4 | 102 | 88.2 | 87.8 | 102 | 96.1 | 99.4 | 94.6 | 97.9 | 111 | 96.2 | 96.5 | 92 | 98.2 | 91.7 | 107 | 89.2 | 95.4 | 91.2 | 0.6 | 0 | 0 | 0.4 | 98.8 | 92.6 | 80.9 | 77.9 | 61 | 6.1 |
| CCC(C)(C)c1ccc(CC(C)CN2C[C@@H](C)O[C@@H](C)C2)cc1 (stereo partly drawn) [amorolfine] | > 10 |  | > 10 |  | 86 | 114 | 91.8 | 84.8 | 76 |  |  |  |  |  | 93.8 | 109 | 92.9 | 100 | 94.7 |  |  |  |  |  | 2.5 |  | 0 |  |  |  |  |  |  |  |
| COC(=O)C1=CCCN(C)C1 [arecoline] |  |  |  |  |  |  |  |  |  |  |  |  |  |  |  |  |  |  |  |  |  |  |  |  |  | 0 | 0.6 |  |  |  |  |  |  | 0 |
| COC(=O)N[C@H](C(=O)N[C@@H](Cc1ccccc1)[C@@H](O)CN(Cc1ccc(-c2ccccn2)cc1)NC(=O)[C@@H](NC(=O)OC)C(C)(C)C)C(C)(C)C [atazanavir] | > 10 | > 10 | > 10 | > 10 | 90.5 | 112 | 92.9 | 84.8 | 80.1 | 111 | 97.1 | 102 | 94 | 99.1 | 99.3 | 99.7 | 91.4 | 91 | 97.1 | 96.3 | 102 | 90.2 | 99.6 | 112 | 2.3 | 0 | 0 | 0 |  |  |  |  |  |  |
